From US20160235735A1 (Teva Pharmaceutical Industries, Ltd., priority 2012, published 2016)
“And” between values parts separate entries of the source, which are not always exact repeats. Equal values may be shown once.

Legend:
[1] = tested on: MOG-induced EAE Mice; test: MOG-induced EAE in mice: laquinimod alone or in combination with fampridine; assay type: in vivo, C57BL/6 mice; settings: for Incidence / Mortality: 30 days; for % inhibition 3: according to GMS; for % inhibition 2: according to MMS; for % inhibition 1: according to incidence; for GMS value: group mean score; for MMS value: mean maximal score
[2] = cited from earlier work
[3] = in vivo; cited from earlier work
[4] = in vivo; cited from earlier work; remark: listed apart in the source
[5] = 4AP 2.5 mg/kg oral QD, compared to vehicle
[6] = 4AP 5 mg/kg oral QD, compared to vehicle
[7] = laquinimod 10 mg/kg oral QD, compared to vehicle
[8] = laquinimod 25 mg/kg oral QD, compared to LAQ (10 mg/kg)
[9] = laquinimod 25 mg/kg oral QD, compared to vehicle

## Nc1ccncc1 [4AP, pyridin-4-amine]
[1]; 4AP 2.5 mg/kg oral QD
  Incidence: 15/15
  Mortality: 0/15
  GMS value: 2.2 ± 0.5
  MMS value: 3.5 ± 0.6
[1]; [5]
  % inhibition 3: 24.1%
  % inhibition 2: 10.2%
  % inhibition 1: 0%
[1]; 4AP 2.5 mg/kg oral QD, compared to vehicle, listed as fampridine
  % inhibition 3: 24.1%
[1]; 4AP 5 mg/kg oral QD
  Incidence: 15/15
  Mortality: 0/15
  GMS value: 1.9 ± 0.6
  MMS value: 3.4 ± 0.6
[1]; [6]
  % inhibition 3: 34.5%
  % inhibition 2: 12.8%
  % inhibition 1: 0%
[1]; 4AP 5 mg/kg oral QD, compared to vehicle, listed as fampridine
  % inhibition 3: 34.5%
[2]; chloride salt
  solubility in aqueous solution: readily soluble
[2]; unionized form
  lipid solubility: lipid-soluble
[3]
  safety issues: safety issues related to seizure induction

## CCN(C(=O)c1c(O)c2c(Cl)cccc2n(C)c1=O)c1ccccc1 [LAQ, Laquinimod]
[1]; laquinimod 10 mg/kg oral QD
  Incidence: 10/15 and 15/15
  Mortality: 0/15
  GMS value: 1.2 ± 1.0
  MMS value: 2.4 ± 1.9
[1]; [7]
  % inhibition 3: 58.6%
  % inhibition 2: 38.5%
  % inhibition 1: 33.3%
[1]; laquinimod 10 mg/kg oral QD, compared to vehicle, listed as laquinimod
  % inhibition 3: 58.6%
[1]; laquinimod 25 mg/kg oral QD
  Incidence: 4/15
  Mortality: 0/15
  GMS value: 0.4 ± 0.7
  MMS value: 0.7 ± 1.3
[1]; [8]
  % inhibition 3: 66.7%
  % inhibition 2: 70.8%
  % inhibition 1: 60.0%
[1]; [9]
  % inhibition 3: 86.2%
  % inhibition 2: 82.1%
  % inhibition 1: 73.3%
[1]; laquinimod 25 mg/kg oral QD, compared to vehicle, listed as laquinimod
  % inhibition 3: 86.2%
[4]
  oral bioavailability: high oral bioavailability
